From ChEMBL document CHEMBL1136546, “SLV310, a novel, potential antipsychotic, combining potent dopamine D2 receptor antagonism with serotonin reuptake inhibition” (Bioorg Med Chem Lett, 2003)

How the values were obtained:
[1] = molecular target: Sodium-dependent serotonin transporter (Rattus norvegicus, UniProt P31652); test: In vitro binding affinity for serotonin reuptake sites in rat frontal cortex membranes by [3H]paroxetine displacement.; assay type: cell membranes, Membrane
[2] = molecular target: D(2) dopamine receptor (Homo sapiens, UniProt P14416); test: In vitro binding affinity at human cloned dopamine receptor D2 (long) stably expressed in CHO cells by [3H]spiperone displacement.; assay type: cell-based
Sequence of D(2) dopamine receptor (P14416 whole entry): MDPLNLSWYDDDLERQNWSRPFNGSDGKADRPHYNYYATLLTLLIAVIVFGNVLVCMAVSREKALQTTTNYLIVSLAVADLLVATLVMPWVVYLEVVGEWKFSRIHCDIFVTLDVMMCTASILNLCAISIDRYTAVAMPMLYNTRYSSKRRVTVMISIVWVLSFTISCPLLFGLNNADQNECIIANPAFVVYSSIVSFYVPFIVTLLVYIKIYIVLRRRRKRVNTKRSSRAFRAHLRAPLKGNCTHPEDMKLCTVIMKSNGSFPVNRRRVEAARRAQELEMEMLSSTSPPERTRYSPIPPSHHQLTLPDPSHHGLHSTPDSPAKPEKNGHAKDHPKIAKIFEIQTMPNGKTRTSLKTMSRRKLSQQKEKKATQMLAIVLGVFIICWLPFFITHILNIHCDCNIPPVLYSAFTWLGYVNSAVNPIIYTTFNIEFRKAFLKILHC

[3] = test system: Mus musculus; test: Dopaminergic antagonistic activity was determined in vivo by antagonising apomorphine induced climbing behavior (APO) in mice by oral administration; assay type: functional
[4] = test system: Mus musculus; test: Serotonin reuptake activity was determined in vivo by potentiation of 5-hydroxytryptophan induced serotonin syndrome like behavior in mice by oral administration; assay type: functional
[5] = test system: Rattus norvegicus; test: Effective dose to exhibit antipsychotic potency after oral administration in rats was determined; assay type: functional

Sequence of Sodium-dependent serotonin transporter (P31652 whole entry): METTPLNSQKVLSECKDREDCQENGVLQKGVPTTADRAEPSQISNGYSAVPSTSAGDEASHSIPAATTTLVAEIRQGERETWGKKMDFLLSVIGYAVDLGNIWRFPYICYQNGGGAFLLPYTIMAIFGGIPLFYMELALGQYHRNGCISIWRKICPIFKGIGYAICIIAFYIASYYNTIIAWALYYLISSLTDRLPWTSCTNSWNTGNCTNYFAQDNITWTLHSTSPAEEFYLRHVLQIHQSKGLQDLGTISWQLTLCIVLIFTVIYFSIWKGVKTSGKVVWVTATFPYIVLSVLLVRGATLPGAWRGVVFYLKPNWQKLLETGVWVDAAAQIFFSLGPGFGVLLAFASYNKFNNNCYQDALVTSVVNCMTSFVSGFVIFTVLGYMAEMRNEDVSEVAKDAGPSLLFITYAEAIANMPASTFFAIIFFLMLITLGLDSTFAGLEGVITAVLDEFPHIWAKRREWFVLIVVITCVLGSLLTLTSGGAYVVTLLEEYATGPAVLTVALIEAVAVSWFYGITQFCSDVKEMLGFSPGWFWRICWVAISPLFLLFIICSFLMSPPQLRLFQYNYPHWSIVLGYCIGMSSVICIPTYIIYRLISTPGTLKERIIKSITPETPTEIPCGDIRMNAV

SMILES | Ki [1] [nM] | Ki [2] [nM] | ED50 [3] [mg/kg] | ED50 [4] [mg/kg] | ED50 [5] [mg/kg]
Cc1cccc2c1C(=O)N(CCCCCN1CC=C(c3c[nH]c4ccccc34)CC1)C2=O | 1 | 100 |  |  | 
O=C1c2ccccc2C(=O)N1CCCCCN1CC=C(c2c[nH]c3ccc(Cl)cc23)CC1 | 16 | 20 |  |  | 
Cc1ccc2c(c1)C(=O)N(CCCCCN1CC=C(c3c[nH]c4ccccc34)CC1)C2=O | 2 | 40 |  |  | 
O=C1c2ccccc2C(=O)N1CCCCN1CC=C(c2c[nH]c3ccc(F)cc23)CC1 | 0.6 | 16 |  |  | 
O=C1c2ccccc2C(=O)N1CCCCCN1CC=C(c2c[nH]c3ccc(F)cc23)CC1 | 2.5 | 5 | 5.6 | 5.9 | 17.5
C1=C(c2c[nH]c3ccccc23)CCNC1 | 6 |  |  |  | 
O=C1c2ccccc2C(=O)N1CCCN1CC=C(c2c[nH]c3ccc(F)cc23)CC1 | 25 | 20 |  |  | 
Cc1cccc2c1C(=O)N(CCCCCN1CC=C(c3c[nH]c4ccc(F)cc34)CC1)C2=O | 1 | 25 |  |  | 
O=C1c2cccc(F)c2C(=O)N1CCCCCN1CC=C(c2c[nH]c3ccc(F)cc23)CC1 | 0.4 | 12 | 6.1 | 10 | 
O=C1c2ccc(F)cc2C(=O)N1CCCCCN1CC=C(c2c[nH]c3ccc(F)cc23)CC1 | 1.3 | 10 | 5 | 10 | 
O=C1c2ccccc2C(=O)N1CCCCCCCN1CC=C(c2c[nH]c3ccc(F)cc23)CC1 | 0.8 | 25 |  |  | 
O=C1c2cccc(F)c2C(=O)N1CCCCCN1CC=C(c2c[nH]c3ccccc23)CC1 | 0.8 | 25 | > 20 | < 50 | 
Cc1ccc2c(c1)C(=O)N(CCCCCN1CC=C(c3c[nH]c4ccc(F)cc34)CC1)C2=O | 3 | 20 |  |  | 
O=C1c2ccccc2C(=O)N1CCCCCN1CC=C(c2c[nH]c3ccccc23)CC1 | 2.5 | 25 | 14 | 7.1 | 
O=C1c2ccc(F)cc2C(=O)N1CCCCCN1CC=C(c2c[nH]c3ccccc23)CC1 | 2 | 40 |  |  | 
Cc1cccc2c(C3=CCN(CCCCCN4C(=O)c5ccccc5C4=O)CC3)c[nH]c12 | 1.3 | 40 |  |  | 
O=C(CCCN1CCC(CCc2c[nH]c3ccccc23)CC1)c1ccc(F)cc1 | 2 | 40 | 11 | > 30 | 
O=C(CCCN1CCC(O)(c2ccc(Cl)cc2)CC1)c1ccc(F)cc1 [HALOPERIDOL] |  |  | 0.1 |  | 
c1ccc2c(CCC3CCNCC3)c[nH]c2c1 [INDALPINE] |  | > 1000 |  |  | 
